Reference: patent EP4772500A1, “NOVEL ISOXAZOLE COMPOUND AS TM4SF5-SPECIFIC INHIBITOR AND USE THEREOF” (Seoul National University R&DB Foundation, priority 2023, dated 2025)

Key:
TM4SF5 and PD-L1 = target: T1, TM4SF5 and PD-L1 (Homo sapiens, UniProt O14894); experiment: Pulldown: binding between TM4SF5 and PD-L1; assay type: cell-based; details: 2.5 µM, 24 hours, SNU449 (FIG. 17c)
T1 construct: expressed in transfected cells; host or cells: SNU449 cells stably expressing TM4SF5, additionally transfected with PD-L1-HA cDNA
T1 sequence (O14894 1-197): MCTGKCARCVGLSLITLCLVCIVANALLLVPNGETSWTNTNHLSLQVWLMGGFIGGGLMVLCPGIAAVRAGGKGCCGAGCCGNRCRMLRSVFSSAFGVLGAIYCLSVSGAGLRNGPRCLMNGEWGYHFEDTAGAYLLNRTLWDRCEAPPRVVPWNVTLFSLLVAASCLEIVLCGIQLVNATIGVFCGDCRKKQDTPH
Procedure: Cells were cultured to ~60% density in a cell incubator at 37°C and 5% CO2, and then transfected using PEI and cultured in a cell incubator at 37°C for two days. After cultivation, cell extracts were obtained by the method described above. After precipitating a desired protein from the cell extracts using an immunoprecipitation method, the binding proteins were identified by the Western blot technique described above. Specifically, cells cultured in a 100 mm cell culture dish for two days were washed twice with PBS, and protease inhibitor cocktails (GenDepot, USA) were added to 500 µl of immunoprecipitation lysis buffer (0.5% Triton X-100 or Brij 58, 40 mM HEPES, 150 mM NaCl, 1 mM EDTA, pH 7.4), followed by treatment at 4°C for 15 minutes. After collecting the cells, centrifugation was performed at 12,000x g at 4°C for 15 minutes, and the supernatant was transferred to a new microcentrifuge tube to obtain a cell extract. Proteins therein were quantified using a BCA reagent (Thermo Scientifics, USA). An electrophoresis sample was prepared by adding 4x laemmli sample buffer to a portion of the quantified sample and boiling at 100°C for 5 minutes. For immunoprecipitation, Streptavidin Agarose Resin (Thermo Fisher Scientific) or anti-HA antibody-coated Sepharose beads were added in proportion to the quantified protein amount, followed by rotation at 4°C for 4 hours, and then centrifugation was performed at 7,000x g at 4°C for 5 minutes and the supernatant was discarded. […]
(a-b) The same number of SNU449-EV or SNU449-TM4SF5 cells were transferred to culture vessels and cultured overnight. […] From the cell extracts, Strep-TM4SF5 was pulled down with strep-agarose beads, and then Western blotting was performed using antibodies against the indicated proteins, or the intracellular localization and expression level of TM4SF5 (red fluorescence) and PD-L1 (green fluorescence) were confirmed with a fluorescence microscope through immunostaining along with DNA staining using DAPI.

TM4SF5 = target: T2, TM4SF5 (Homo sapiens, UniProt O14894); experiment: 1,2-3H-Cholesterol binding to pulled-down TM4SF5; parameters: expressed in transfected cells; captured on streptavidin agarose; details: 1,2-3H-Cholesterol (50 µM); for IC50: Huh7KO Strep-TM4SF5 (FIG. 19e), read-out: concentration at which binding between TM4SF5 and cholesterol was reduced by 50%; for binding of TM4SF5 to cholesterol: drug 2.5 µM, 1 hour (FIG. 19c)
T2 sequence (O14894 1-197): T1 sequence (O14894 1-197)
Procedure: (a) Expression vectors for a control vector, TM4SF1, TM4SF5 WT, and R113Q, C118/145A, H127A, and N138A mutants of TM4SF5 were injected into the HEK293FT cell line, which was confirmed not to express TM4SF5, and allowed to express for 48 hours. (b) Huh7KO cell lines, in which TM4SF5 was knocked out in Huh7, were stably infected with a retrovirus encoding pBabe-EV or pBabe-TM4SF5-HA. […] (d) Strep-EV, Strep-PD-L1 WT, and 3NQ (N192/200/219Q) and 4NQ (N35/192/200/219Q) N-glycosylation mutants were injected into Huh7 cells to be expressed. (e) Strep-EV and Strep-TM4SF5 expression vectors were injected into Huh7KO cells and allowed to express for 48 hours. (a-e) After obtaining cell extracts, TM4SF5-strep, TM4SF5-HA, or PD-L1-strep was pulled down with streptavidin agarose resin or anti-HA antibody from extracts containing 0.2, 0.25, or 1.0 mg of protein for each experimental condition. Each of the pulled-down beads was treated with ^14C-labelled ST-5-002 (10, 25, or various indicated concentrations, µM) for 1 hour in the presence or absence of 400 µM of cold ST-5-002 (a-b). Alternatively, they were treated with 1,2-^3H-Cholesterol (50 µM) alone or together with ST-3-001 (negative control compound), ST-5-001, or ST-5-002 (2.5 µM each) for 1 hour (c-e). For the experimental samples of each condition, radioactive isotope values were repeatedly measured using a TriCarb scintillation counter (PerkinElmer, Waltham, MA).

| binding between TM4SF5 and PD-L1 (TM4SF5 and PD-L1) | IC50 (TM4SF5) [µM] | binding of TM4SF5 to cholesterol (TM4SF5) | SMILES |
| --- | --- | --- | --- |
| inhibition | – | – | Cc1ccc(S(=O)(=O)Nc2ccc(C(=O)/C=C/c3ccc(O)cc3)cc2)cc1 [TSAHC, 4'-(p-toluenesulfonylamino)-4-hydroxychalcone, reference compound] |
| decreased and inhibited | 6.15 | inhibited | CC(=O)Nc1ccc(-c2cc(-c3ccc(O)cc3)no2)cc1 [ST-5-001, N-(4-(3-(4-hydroxyphenyl)isoxazole-5-yl)phenyl)acetamide] |
| decreased and inhibited | 0.787 | inhibited | Cc1ccc(C(=O)Nc2ccc(-c3cc(-c4ccc(O)cc4)no3)cc2)cc1 [ST-5-002, N-(4-(3-(4-hydroxyphenyl)isoxazole-5-yl)phenyl)-4-methylbenzamide] |
| – | – | not affected | COc1cccc(-c2cc(-c3ccc(NC(C)=O)cc3)no2)c1 [ST-3-001, N-(4-(5-(3-methoxyphenyl)isoxazole-3-yl)phenyl)acetamide] |
